In patent US10046050B2, “Targeting immunotherapy for amyloidosis” (UNIVERSITY OF TENNESSEE RESEARCH FOUNDATION, priority 2014, dated 2018):
Like-named read-outs stand apart in the source and are kept apart here. Values belong to the substance of their own block, whether it stands above or below them.

Tests used:
[1] = p66 and 11-1F4 on BSA-blocked wells without fibrils; type: binding; conditions: absence of fibrils
[2] = tested on: RAW 264.7 murine macrophages; assay: Phagocytosis assay of pHrodo green-labeled human ATTR extract; type: cell-based; conditions: 80 min
Protocol: The phagocytosis of human cardiac ATTR extract induced by peptope and 7D8 was studied using a pH-sensitive fluorescence enhancement assay. The RAW 264.7 murine macrophages (1×10^6 cells per well) were plated into the wells of a 12-well culture dish, containing a glass coverslip, and incubated at 37° C. overnight. On the day of the experiment, 10 μg of pHrodo green-labeled human ATTR extract was mixed with 4 μg of p75 peptide or, as a negative control, an equal volume of PBS (pHrodo green [Thermofisher, Molecular Probes] is a pH sensitive dye that is only fluorescent at pH 4, i.e. in a acidified macrophage endosome/lysosome). The sample was incubated for 30 min. Unbound p75 peptide was removed by washing twice, by centrifugation at 10,000×g using PBS. The 7D8 and MOPC mAb solutions (MOPC served as a negative isotype control) were centrifuged at 10,000×g to remove particulates before adding 10 μg to the peptide-coated ATTR extract. The samples were incubated for 1 h before being washed by centrifugation as above, before being added to the wells of the microplate. The cells were incubated with the amyloid extract for 80 min, at which time Hoescht dye (Thermofisher) was added to the well (to stain the cell nuclei blue), and the mixture incubated for a further 10 min. The coverslips were then washed and mounted on a slide for epifluorescent microscopy and digital image acquisition using blue (nuclei) and green (phagocytosed amyloid) fluorescent filters. Images (original magnification 160×) were analyzed digitally and the area of green fluorescence per cell (“phagocytosis index”) was calculated using 3 or 4 digital images acquired from each coverslip. Approximately 2000 cells were analyzed for each sample.

mAb 7D8 = assay: Surface plasmon resonance of mAb 7D8 binding to amino-coupled peptopes
Protocol: Analyses were performed using a BIAcore X surface plasmon resonance instrument (GE Healthcare) and all reagents were obtained from GE Healthcare. For chip preparation, the peptides were attached to CM-5 chips using the amino-coupling method supplied with the instrument software. Briefly, chips were activated by injection (35 μL) of a mixture of ECD/NHS at a flow rate of 5 μL/min. Immediately thereafter, 35 μL of the test peptide (peptope p75, p76, p77, or p78), diluted to 1 μg/mL in NaOAc buffer, pH 5.5, was injected. After peptide coupling, the remaining active groups on the chip were blocked by injection of 35 μL of 1 M ethanolamine-HCl pH 8.5. Test peptides p75, p76, p77, or p78 were coupled to the Fc-1 channel and peptide p5, which served as a control, was coupled to the Fc-2 channel. A sensorgram was initiated on each chip in HBS-EP buffer at 10 μL per min. An initial regeneration step consisting of a 20 μL injection of pH 2.5 glycine buffer was performed and the baseline allowed to equilibrate. Antibody 7D8 was diluted to a stock of 10 μg/mL in HBS-EP buffer which was further diluted to a 0.4 μg/mL (˜2.7 nM) working dilution immediately before injection. The antibody was injected (50 μL) and the data collected for 200 seconds using a delayed wash cycle. The chip was subjected to a regeneration step before the next test injection. Binding data were extracted from the sensorgram, aligned, and analyzed using the BIAevaluation software by fitting to the following binding models (i) Langmuir, (ii) Langmuir with mass transfer, and (iii) Interaction of a bivalent analyte [A+B→AB; AB+B→AB2].

^125I-7D8 = assay: Pulldown assay with peptope-coated polystyrene beads; type: binding; conditions: peptope conjugated to polystyrene beads; ˜0.065 nM ^125I-7D8
Protocol: The 7D8 antibody (15 μg) was radiolabeled with 0.5 mCi of reductant-free iodine-125 (^125I, Perkin Elmer) using limiting amounts of chloramine T (10 μg) and suspended in PBS containing 0.1% gelatin as carrier protein. Unbound radioisotope and protein aggregates were removed from the preparation by size-exclusion liquid chromatography using an Ultrogel AcA34 solid phase (Amersham Pharmacia). Fractions containing ^125I-7D8 were pooled for pull-down assays. The relative radiopurity of the preparation was assessed by SDS/PAGE (4-12% acrylamide; Novex) followed by imaging using a phosphor-imager (Cyclone).
Pulldown assays were performed using ^125I-7D8 using, as a substrate, peptope-conjugated to polystyrene beads, synthetic fibrils (Aβ[1-40] or IAPP) or human ATTR amyloid extracts (transthyretin-associated amyloid [ATTR] was previously isolated from the organs of three different patients with Appalachian mutation—Thr60Ala). […] The sample was mixed end over end for 1 h at room temperature, and the bound and free ^125I-7D8 were then separated by serial centrifugations at 16,000×g and the percent bound calculated immunoreactivity=[boundcpm/(boundcpm+freecpm)]×100 Pulldown assays using synthetic fibrils and amyloid extracts were performed essentially as described herein. […]

[3] = Langmuir with Mass Transfer, 7D8 2.7 nM

Substance: KAQKAQAKQAKQAQKAQKAQAKQAKQAQKAQKAQAKQAKQ SVTVVT KHYAAFPENLLI [p66]
- peptide binding and 11-1F4 reactivity in BSA-blocked wells [1]: no peptide bound and no mAb reactivity was observed

- Rmax (RU) (mAb 7D8; Bivalent Analyte, 7D8 2.7 nM): 4.79E+03 RU
- ka1 (mAb 7D8; Bivalent Analyte, 7D8 2.7 nM): 85300 M⁻¹ s⁻¹
- ka2 (1/RUs) (mAb 7D8; Bivalent Analyte, 7D8 2.7 nM): 8.22E−04 1/RUs
- kd1 (mAb 7D8; Bivalent Analyte, 7D8 2.7 nM): 0.0674 s⁻¹
- kd2 (mAb 7D8; Bivalent Analyte, 7D8 2.7 nM): 0.0628 s⁻¹
- KA (mAb 7D8; [3]): 6.98e+08 M⁻¹
- Req (RU) (mAb 7D8; [3]): 500 RU
- Rmax (RU) (mAb 7D8; [3]): 765 RU
- ka (mAb 7D8; [3]): 5.95e+06 M⁻¹ s⁻¹
- kd (mAb 7D8; [3]): 0.00853 s⁻¹
- kobs (mAb 7D8; [3]): 0.0246 s⁻¹
- kt (RU/(M*s)) (mAb 7D8; [3]): 9.14E+08 RU/(M*s)
- Kd (mAb 7D8; Langmuir with Mass Transfer, 7D8 2.7 nM, read-out: KD): 1.43 nM
- KA (mAb 7D8; Langmuir, 7D8 2.7 nM): 1.59e+08 M⁻¹
- Req (RU) (mAb 7D8; Langmuir, 7D8 2.7 nM): 654 RU
- Rmax (RU) (mAb 7D8; Langmuir, 7D8 2.7 nM): 2.18E+03 RU
- ka (mAb 7D8; Langmuir, 7D8 2.7 nM): 369000 M⁻¹ s⁻¹
- kd (mAb 7D8; Langmuir, 7D8 2.7 nM): 0.00233 s⁻¹
- kobs (mAb 7D8; Langmuir, 7D8 2.7 nM): 0.00333 s⁻¹
- Kd (mAb 7D8; Langmuir, 7D8 2.7 nM, read-out: KD): 6.3 nM
- binding kinetics relative to the other peptopes (mAb 7D8; surface plasmon resonance): slow and reduced off-rate
- Kd (mAb 7D8; text summary of surface plasmon resonance measurements, read-out: dissociation constants (KD)): 1 to 5 nM
Substance: KAQKAQAKQAKQAQKAQKAQAKQAKQAQHEDT [p75, KAQKAQAKQAKQAQKAQKAQAKQAKQAQHEDT]
- phagocytosis index (area of green fluorescence per cell), 25% Percentile [2]: 0.5842
- phagocytosis index (area of green fluorescence per cell), 75% Percentile [2]: 2.603
- phagocytosis index (area of green fluorescence per cell), Maximum [2]: 2.603
- phagocytosis index (area of green fluorescence per cell), Mean [2]: 1.367
- phagocytosis index (area of green fluorescence per cell), Median [2]: 0.9137
- phagocytosis index (area of green fluorescence per cell), Minimum [2]: 0.5842
- percent of added ^125I-7D8 bound (^125I-7D8): 62.3%
